Measured values taken from PubChem BioAssay AID1963445 (Molecular Pharmacology Branch, DTP, NCI, 2024).
Where “and” joins values, the source holds several entries; their conditions need not be identical. Equal values may be shown once.

Tested on: MCF7 complex spheroid growth, % test/control
Assay: Anticancer human tumor MCF7 cell line growth inhibition [Asc];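 note: spheroids exposed to compounds for 7 days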;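 for viability, T/C: 100% = DMSO vehicle control wells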
Details: for viability, T/C: stronger effect = lower value; active = viability on the fitted dose curve at most 10% of control; inactive = the rest
Outline: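 Spheroid model: tumor line + HUVEC + hMSC. Single agents and combinations; top conc. at/near clinical Cmax (10 microM if undetermined), half-log dilutions. DMSO stocks at 800-fold test concentration.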

[1] = curve of first compound, second compound 0.0316 µM
[2] = curve of first compound, second compound 0.1 µM
[3] = curve of first compound, second compound 0.316 µM
[4] = curve of first compound, second compound 1 µM

CCN1C(C(=O)NC23CCC(C(=O)O)(CC2)CC3)C(c2cccc(Cl)c2F)C2(C(=O)Nc3cc(Cl)ccc32)C12CCCCC2 (stereo unspecified) + CNC(C)C(=O)NC1CN(S(=O)(=O)c2cccc(S(=O)(=O)N3CCC4CCC(C(=O)NC(c5ccccc5)c5ccccc5)N4C(=O)C(NC(=O)C(C)NC)C3)c2)CCC2CCC(C(=O)NC(c3ccccc3)c3ccccc3)N2C1=O
active: viability, T/C (second compound 0.00316 µM, first compound 0.0949 µM) 10.8% | viability, T/C (second compound 0.00316 µM, first compound 0.3 µM) 11% | viability, T/C (second compound 0.00316 µM, first compound 0.949 µM) 8.86% | viability, T/C (second compound 0.00316 µM, first compound 3 µM) 5.04% | viability, T/C (second compound 0.01 µM, first compound 0.03 µM) 8.24% | viability, T/C (second compound 0.01 µM, first compound 0.0949 µM) 8.54% | viability, T/C (second compound 0.01 µM, first compound 0.3 µM) 5.55% | viability, T/C (second compound 0.01 µM, first compound 0.949 µM) 5.82% | viability, T/C (second compound 0.01 µM, first compound 3 µM) 5.04% | viability, T/C (second compound 0.0316 µM, first compound 0.03 µM) 8.85% | viability, T/C (second compound 0.0316 µM, first compound 0.0949 µM) 5.62% | viability, T/C (second compound 0.0316 µM, first compound 0.3 µM) 5.69% | viability, T/C (second compound 0.0316 µM, first compound 0.949 µM) 4.2% | viability, T/C (second compound 0.0316 µM, first compound 3 µM) 5.94% | viability, T/C (second compound 0.1 µM, first compound 0.03 µM) 10.7% | viability, T/C (second compound 0.1 µM, first compound 0.0949 µM) 6.73% | viability, T/C (second compound 0.1 µM, first compound 0.3 µM) 6.23% | viability, T/C (second compound 0.1 µM, first compound 0.949 µM) 4.67% | viability, T/C (second compound 0.1 µM, first compound 3 µM) 5.57% | viability, T/C (second compound 0.316 µM, first compound 0.03 µM) 10.7% | viability, T/C (second compound 0.316 µM, first compound 0.0949 µM) 7.04% | viability, T/C (second compound 0.316 µM, first compound 0.3 µM) 5.56% | viability, T/C (second compound 0.316 µM, first compound 0.949 µM) 5.97% | viability, T/C (second compound 0.316 µM, first compound 3 µM) 6.29% | viability, T/C (second compound 1 µM, first compound 0.0949 µM) 9.54% | viability, T/C (second compound 1 µM, first compound 0.3 µM) 5.59% | viability, T/C (second compound 1 µM, first compound 0.949 µM) 4.74% | viability, T/C (second compound 1 µM, first compound 3 µM) 6.71%
< 9.49 nM: IC50 (curve of first compound, second compound 0.00316 µM) | IC50 (curve of first compound, second compound 0.01 µM) | IC50 [1] | IC50 [2] | IC50 [3] | IC50 [4]
inactive: viability, T/C (second compound 0.00316 µM, first compound 0.00949 µM) 40.9% | viability, T/C (second compound 0.00316 µM, first compound 0.03 µM) 14.3% | viability, T/C (second compound 0.01 µM, first compound 0.00949 µM) 11.4% | viability, T/C (second compound 0.0316 µM, first compound 0.00949 µM) 11.9% | viability, T/C (second compound 0.1 µM, first compound 0.00949 µM) 12% | viability, T/C (second compound 0.316 µM, first compound 0.00949 µM) 12.5% | viability, T/C (second compound 1 µM, first compound 0.00949 µM) 11.2% | viability, T/C (second compound 1 µM, first compound 0.03 µM) 12.5%

CNC(C)C(=O)NC1CN(S(=O)(=O)c2cccc(S(=O)(=O)N3CCC4CCC(C(=O)NC(c5ccccc5)c5ccccc5)N4C(=O)C(NC(=O)C(C)NC)C3)c2)CCC2CCC(C(=O)NC(c3ccccc3)c3ccccc3)N2C1=O (stereo unspecified)
inactive: viability, T/C (compound 0.01 µM) 14.2% [middle of 9 runs] | viability, T/C (compound 0.0316 µM) 11.7% [middle of 9 runs] | viability, T/C (compound 0.1 µM) 14.7% [middle of 8 runs] | viability, T/C (compound 0.316 µM) 13.2% [middle of 9 runs] | viability, T/C (compound 1 µM) 13.2% [middle of 9 runs]
5.24 nM and 6.67 nM: IC50 (curve of compound)
< 3.16 nM: IC50 (compound alone, run of 11/15/2022)

C=CC(=O)N1CCN(c2nc(=O)n(-c3c(C)ccnc3C(C)C)c3nc(-c4c(O)cccc4F)c(F)cc23)C(C)C1 (stereo unspecified) + Cc1c(S(C)(=O)=O)c(-c2cc(F)cc(N3CCN(c4ccc(NS(=O)(=O)c5ccc(NC(CCN6CCC(C(=O)OCCCP(=O)(O)O)CC6)CSc6ccccc6)c(S(=O)(=O)C(F)(F)F)c5)cc4)CC3)c2)c(-c2ccc(Cl)cc2)n1C(C)C
inactive: viability, T/C (second compound 0.0316 µM, first compound 0.0316 µM) 101% | viability, T/C (second compound 0.0316 µM, first compound 0.1 µM) 105% | viability, T/C (second compound 0.0316 µM, first compound 0.316 µM) 99.7% | viability, T/C (second compound 0.0316 µM, first compound 1 µM) 95.5% | viability, T/C (second compound 0.0316 µM, first compound 3.16 µM) 112% | viability, T/C (second compound 0.0316 µM, first compound 10 µM) 85.8% | viability, T/C (second compound 0.1 µM, first compound 0.0316 µM) 92.9% | viability, T/C (second compound 0.1 µM, first compound 0.1 µM) 89.6% | viability, T/C (second compound 0.1 µM, first compound 0.316 µM) 89% | viability, T/C (second compound 0.1 µM, first compound 1 µM) 110% | viability, T/C (second compound 0.1 µM, first compound 3.16 µM) 92.3% | viability, T/C (second compound 0.1 µM, first compound 10 µM) 87.4% | viability, T/C (second compound 0.316 µM, first compound 0.0316 µM) 101% | viability, T/C (second compound 0.316 µM, first compound 0.1 µM) 92.7% | viability, T/C (second compound 0.316 µM, first compound 0.316 µM) 109% | viability, T/C (second compound 0.316 µM, first compound 1 µM) 90.1% | viability, T/C (second compound 0.316 µM, first compound 3.16 µM) 89.5% | viability, T/C (second compound 0.316 µM, first compound 10 µM) 81.3% | viability, T/C (second compound 1 µM, first compound 0.0316 µM) 87.2% | viability, T/C (second compound 1 µM, first compound 0.1 µM) 91.4% | viability, T/C (second compound 1 µM, first compound 0.316 µM) 102% | viability, T/C (second compound 1 µM, first compound 1 µM) 97.4% | viability, T/C (second compound 1 µM, first compound 3.16 µM) 101% | viability, T/C (second compound 1 µM, first compound 10 µM) 89.9% | viability, T/C (second compound 3.16 µM, first compound 0.0316 µM) 92.9% | viability, T/C (second compound 3.16 µM, first compound 0.1 µM) 94.9% | viability, T/C (second compound 3.16 µM, first compound 0.316 µM) 103% | viability, T/C (second compound 3.16 µM, first compound 1 µM) 94.1% | viability, T/C (second compound 3.16 µM, first compound 3.16 µM) 89.5% | viability, T/C (second compound 3.16 µM, first compound 10 µM) 86.1% | viability, T/C (second compound 10 µM, first compound 0.0316 µM) 222% | viability, T/C (second compound 10 µM, first compound 0.1 µM) 143% | viability, T/C (second compound 10 µM, first compound 0.316 µM) 171% | viability, T/C (second compound 10 µM, first compound 1 µM) 195% | viability, T/C (second compound 10 µM, first compound 3.16 µM) 233% | viability, T/C (second compound 10 µM, first compound 10 µM) 168%
> 10000 nM: IC50 [1] | IC50 [2] | IC50 [3] | IC50 [4] | IC50 (curve of first compound, second compound 3.16 µM) | IC50 (curve of first compound, second compound 10 µM)
